Tests used:
[1] = system: cultured adipocytes; conditions: cultured adipocytes treated with the substance alone; cited from earlier work
[2] = system: progranulin (PGRN) mRNA; experiment: Progranulin mRNA expression in adipose tissues of ob/ob mice orally administered pioglitazone; format: in vivo; conditions: ten-week-old ob/ob mice, 30 mg/kg orally every day for 1 week, mean±S.D.
Method: Adipose tissues (mesenteric fat tissue (MF), epididymal fat tissue (EF), and subcutaneous adipose tissue (SC)) were extracted from seven-week-old ob/ob mice and ob/+ mice and subjected to real-time PCR analysis to determine the expression levels of mRNA for progranulin (PGRN).
(§1) Ten-week-old ob/ob mice were orally administered with 30 mg/kg of a thiazolidine derivative (pioglitazone) every day for 1 week. An oral glucose tolerance test (OGTT) was performed on these mice and a control group (Vehicle) administered with only a solvent (10% (w/v) carboxymethyl cellulose).
In FIG. 8, the horizontal axis represents the type of adipose tissue (epididymal fat tissue (EF), mesenteric fat tissue (MF), subcutaneous adipose tissue (SC) (white adipose tissue (WAT) and brown adipose tissue (BAT)), the vertical axis represents the relative expression level of progranulin mRNA (relative PRGN mRNA expression), “Vehicle” represents the control group, and “Pio” represents the pioglitazone administration group.

[3] = system: progranulin (PGRN); experiment: Serum progranulin concentration in ob/ob mice orally administered pioglitazone (ELISA); format: in vivo; conditions: ten-week-old ob/ob mice, 30 mg/kg orally every day for 1 week; mean±S.D., n=5; p<0.05 vs Vehicle (2.57±0.28)
Method: Blood samples were collected from seven-week-old ob/ob mice and ob/+ mice, allowed to stand at room temperature, and centrifuged to prepare serum samples. Serum progranulin concentrations were measured by ELISA.
as §1
In FIG. 9, the horizontal axis represents the type of group to be measured (pioglitazone administration group (Pio), control group (Vehicle), and ob/+ mice) and the vertical axis represents the serum progranulin concentration (Serum PGRN conc.) (μg/mL).

[4] = system: Akt protein; conditions: cultured adipose cells treated with progranulin protein, under insulin stimulation; cited from earlier work

TNF-α
expression level of progranulin [1]: increased

CCc1ccc(CCOc2ccc(CC3SC(=O)NC3=O)cc2)nc1 (stereo not drawn) [pioglitazone]
expression level of mRNA for progranulin in mesenteric fat tissue (MF) ([2]; p<0.01 vs Vehicle): 0.42±0.11 times that of the control group | expression level of mRNA for progranulin in epididymal fat tissue (EF) ([2]; p<0.05 vs Vehicle): 0.74±0.06 times that of the control group | expression level of mRNA for progranulin in subcutaneous adipose tissue (SC) (white adipose tissue (WAT)) ([2]; p<0.05 vs Vehicle): 0.61±0.07 times that of the control group | serum progranulin concentration [3]: 1.86 ± 0.10 µg/mL

B1: progranulin protein: granulin precursor protein having seven kinds of granulin domains; insulin resistance marker (protein)
chain: MWTLVSWVALTAGLVAGTRCPDGQFCPVACCLDPGGASYSCCRPLLDKWPTTLSRHLGGPCQVDAHCSAGHSCIFTVSGTSSCCPFPEAVACGDGHHCCPRGFHCSADGRSCFQRSGNNSVGAIQCPDSQFECPDFSTCCVMVDGSWGCCPMPQASCCEDRVHCCPHGAFCDLVHTRCITPTGTHPLAKKLPAQRTNRAVALSSSVMCPDARSRCPDGSTCCELPSGKYGCCPMPNATCCSDHLHCCPQDTVCDLIQSKCLSKENATTDLLTKLPAHTVGDVKCDMEVSCPDGYTCCRLQSGAWGCCPFTQAVCCEDHIHCCPAGFTCDTQKGTCEQGPHQVPWMEKAPAHLSLPDPQALKRDVPCDNVSSCPSSDTCCQLTSGEWGCCPIPEAVCCSDHQHCCPQGYTCVAEGQCQRGSEIVAGLEKMPARRASLSHPRDIGCDQHTSCPVGQTCCPSLGGSWACCQLPHAVCCEDRQHCCPAGYTCNVKARSCEKEVVSAQPATFLARSPHVGVKDVECGEGHFCHDNQTCCRDNRQGWACCPYRQGVCCADRRHCCPAGFRCAARGTKCLRREAPRWDAPLRDPALRQLL
modifications: human
notes: granulin precursor protein having seven kinds of granulin domains; insulin resistance marker
activity of Akt protein activated downstream of an insulin receptor [4]: significantly suppressed

Reference: patent US20130210039A1, “BLOOD INSULIN RESISTANCE AND DIABETES MARKER PROGRANULIN, METHOD FOR ANALYZING CONCENTRATION OF PROGRANULIN IN BLOOD SAMPLE, AND METHOD FOR SCREENING FOR SUBSTANCE THAT IMPROVES INSULIN RESISTANCE AND IMPROVES OR SUPPRESSES DIABETES” (priority 2010, published 2013)
